Measured values published in patent publication US11098039B2, “Benzodiazepine product with activity on the central nervous and vascular systems” (UNIVERSIDAD DE LA HABANA, priority 2016, dated 2021).
“Also recorded” adds a separate entry of the source.

How the values were obtained:
CCI rats = assay: Histology of sciatic nerve (Wallerian degeneration) in chronic constriction injury (CCI) model; assay type: in vivo; conditions: JM-20 20 mg/Kg p.o., repeated doses for 7 days starting Day 7 post-CCI, 14 days after surgery, H/E and luxol fast blue
Description: We studied the effect of JM-20 on the chronic constriction of the sciatic nerve model (CCI), an NP model (Bennett M I, Rayment C, Hjermstad M, Aass N, Caraceni A, Kaasa S. Prevalence and aetiology of neuropathic pain in cancer patients: A systematic review. Pain 2012; 153:359-365) Results are presented in FIG. 19-23.
A, B and C show the longitudinal section of the sciatic nerve 5 mm distal to the lesion on CCI Sham rats, CCI treated with JM-20 and treated with vehicle respectively (H/E coloration). We can observe the increase in cellularity in CCI animals relatively compared with sham operated animals as the result of the proliferation of Schawann cells and the infiltration of macrophages and the loss of an orderly alignment of axons associated to their myelin sheathes as compared to the sham-CCI. The arrow indicates one of the many digestion chambers of Schawann cells containing a myelin ovoid (reddish oval mass). D, E, F show sections from the same animals but they are colored by the luxol fast blue (LFB) technique, a specific technique for myelin tincture.

rats = assay: 5% formalin test (tonic pain), Phase II; assay type: in vivo; conditions: Phase II (15-45 min), flumazenil pre-treatment study
Description: We studied the effect of JM-20 (10, 20, 40 mg/Kg, p.o) on behaviors related to pain in a tonic pain model (5% formalin test) in rats. (Dubuisson D, Dennis S G. The formalin test: a quantitative study of the analgesic effects of morphine, meperidine and brain-stem stimulation in rats and cats. Pain 1977; 4:161-174).
Each column represents the reaction time of 6-10 animals per group as the mean±EEM, * P<0.05, ***P<0.001 represents the statistical differences between treated and control groups (only vehicle), ****P<0.05 represents statistical differences between groups treated with diazepam in the presence or absence of flumazenil, 1p<0.05 represents statistical differences between groups treated with JM-20 in the presence or absence of flumazenyl.

male Wistar rats [1] = assay: Exploratory Activity Test (vertical exploration) after unilateral 6-OHDA lesion; assay type: in vivo; conditions: 6-OHDA damage, after 7 days of treatment, statistically different at 40 mg/Kg versus untreated injured animals
Description: (§1) Male adult Wistar rats were used, weighing between 200 and 250 grams at the start of the experiment, coming from the National Laboratory Animal Production Center (CENPALAB), Havana, Cuba. The animals were kept at the Center for the Research and Development of Medicines (CIDEM) in plastic translucent boxes at an average temperature of 23° C. (22±2° C.), with food and water supplies ad libitum and 12-hour periods of light and dark.
JM-20 was administered in 3 different doses: 10, 20 and 40 mg/Kg, 24 hours after inducing damage and on a daily basis for 7 days. The compound was prepared in carboxymethylcellulose (CMC) at 0.05%, intragastrically with a cannula. […]
In order to assess the vertical exploratory activity of animals we used the Exploratory Activity Test; the animal is placed in a clear Plexiglas cubicle, 41×41×33 (h) cm, (UGO BASILE, MultipleActivityCage Cat. No. 47420. Data output is managed by 52050-04 Data Acquisition Software Package (Windows® based). The cubicle is supported on a robust base made of black Plexiglas that has 4 vertical steel bars with steel grooves so that the horizontal/vertical detection systems are correctly affixed. The sensors are IR light emission systems capable of registering animal movements by shapes, or rather vertical exploration. Data is monitored on a computer. […]

OF-1 mice = assay: Memory loss induced by beta amyloid 25-35 peptide oligomers (in vivo); conditions: JM-20 administered 7 days after beta amyloid administration; 10 and 30 mg/kg orally for 10 days; Aβ 100 pmol i.c.v.
Description: For the different studies JM-20 was suspended in carboxymethyl cellulose (CMC) 0.05% and administered orally. Scopolamine bromide was dissolved in the 0.9% saline solution and administered intraperitoneally (1 mg/kg, 4 mL/Kg of weight). Aluminum chloride was dissolved in common drinking water for the experimental subjects and administered orally in a 500 mg/Kg peso dose, in chronic form for one month and while behavioral studies were conducted. Beta amyloid peptides (25-35) were oligomerized and made soluble according to the manufacturer's norms and administered via intracerebroventricular means at 100 pmols in 5 uL, into the right cerebral hemisphere.
In vivo experiments corresponding to the scopolamine and aluminum model used Wistar rats (males, 230-260 g), while in vivo experiments corresponding to the beta amyloid model used OF-1 mice (males, 25-30 g). All the animals came from the National Laboratory Animal Production Center (CENPALAB, Mayabeque, Cuba) and after their arrival they underwent adaptation to laboratory conditions for 7 days. […]
Subsequently we conducted in vivo studies on OF-1 mice. We assessed the effect of JM-20 on memory loss induced by beta amyloid oligomers administered 7 days after the intracerebroventricular administration of Aβ (100 pmols) during 10 days, orally in 10 and 30 mg/kg weight doses. […]

male Wistar rats [2] = assay: Cylinder test after unilateral 6-OHDA lesion of the substantia nigra pars compacta; assay type: in vivo; conditions: 6-OHDA damage, after 7 days of treatment
Description: as §1
JM-20 was administered in 3 different doses: 10, 20 and 40 mg/Kg, 24 hours after inducing damage and on a daily basis for 7 days. The compound was prepared in carboxymethylcellulose (CMC) at 0.05%, intragastrically with a cannula. There were 5 experimentation groups: Group I (vehicle/saline with ascorbic acid, n=6), Group II (animals affected with 6-OHDA, n=8), Group III (animals affected with 6-OHDA and co-treated with 10 mg/Kg JM-20, n=8), Group IV (animals affected with 6-OHDA and co-treated with 20 mg/Kg JM-20, n=8) and Group V (animals affected with 6-OHDA and co-treated with 40 mg/Kg JM-20 n=8). All behavioral studies were run at 7 days.
For the purpose of proceeding to unilateral dopaminergic denervation of the striate body (right hemisphere) the rats were anesthetized with Chloral Hydrate [0.4 g/kg weight, i.p., Merck (Darmstadt, Germany)] and placed into a frame designed for stereotactic surgery (Stoelting Instruments, USA.), where they were injected in the right substantia nigra pars compacta with saline solution neurotoxin 6-OHDA-HBr (8 μg/3 μL, also containing 0.2 mg/ml of ascorbic acid as an antioxidant) (Pavón Fuentes, Nancy (2007) Efecto de la inactivación de los receptores dopaminérgicos D2 y de la manipulación del núcleo subtalámico sobre la conducta motora en modelos de hemiparkinsonismo en roedores. Doctor en Ciencias de una Especialidad, Universidad de Ciencias Médicas de La Habana). Coordinates were calculated taking Bregma as a point of reference in accordance with the Paxinos and Watson Atlas [Paxinos, G. and Watson, C., The rat brain in stereotaxic coordenates. 2nd the Academic Press. New York, 1986], referred to in Table 1. […]

Compound: CCOC(=O)C1=C(C)NC2=C(C=Nc3ccccc3N2)C1c1ccccc1[N+](=O)[O-] (stereo not shown) [JM-20, 3-etoxicarbonil-2-methyl-4-(2-nitrofeenil)-4,11-dihydro-1H-pirido[2,3-b][1,5] benzodiacepine]
- histological changes induced by CCI (Wallerian degeneration): nerve fiber disorganization, cell number, myelin sheath degradation (CCI rats): reduced disorganization of the nerve fibers induced by CCI; also recorded: Reduction in CCI-induced nerve fiber disruption and cell count increase and myelin sheath degradation
- effect on Phase II of the 5% formalin test (rats): antihypernociceptive effect
- vertical exploration (male Wistar rats [1]): increased their vertical exploration
- memory loss induced by beta amyloid 25-35 peptide oligomers (OF-1 mice): reverts memory loss
- use of the paw contralateral to the damage (male Wistar rats [2]; JM-20 40 and 20 mg/Kg): increased use of the paw contralateral to the damage; also recorded: increased use of contralateral leg
- use of the ipsilateral paw (male Wistar rats [2]; both doses of JM-20 (40 and 20 mg/Kg), normal values): ~50%
- % of asymmetry (cylinder test), motor damage (male Wistar rats [2]; versus injured animals without treatment): diminished motor damage; also recorded: decrease in motor damage
